Measurements as given in publication PMC8620791, “Inhibitory Effects of Sulfonamide Derivatives on the β-Carbonic Anhydrase (MpaCA) from Malassezia pachydermatis, a Commensal, Pathogenic Fungus Present in Domestic Animals” (International Journal of Molecular Sciences, 2021).

Columns and labels:
[1] = biological target: MgCA; design: method as in PMID 31963335; details: stopped-flow CO2 hydration; given for comparison; ref [26]; cited from earlier work
[2] = biological target: MreCA; design: method as in PMID 31963335; details: stopped-flow CO2 hydration; given for comparison; ref [26]; cited from earlier work
[3] = biological target: T1, β-CA (MpaCA) from Malassezia pachydermatis (Malassezia pachydermatis, UniProt A0A0M8MPA4); assay: biochemical; details: recombinant enzyme, stopped-flow CO2 hydration, mean from three assays, errors ±5–10%, 15 min preincubation
T1 sequence (A0A0M8MPA4 1-242): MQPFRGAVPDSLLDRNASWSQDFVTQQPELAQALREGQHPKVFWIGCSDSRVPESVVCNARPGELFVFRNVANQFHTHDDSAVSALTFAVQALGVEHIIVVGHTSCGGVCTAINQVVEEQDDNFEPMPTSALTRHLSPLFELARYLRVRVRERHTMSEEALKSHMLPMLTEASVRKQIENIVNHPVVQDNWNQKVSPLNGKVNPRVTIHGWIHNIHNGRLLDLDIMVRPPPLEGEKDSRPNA
Protocol: An applied photophysics stopped-flow instrument was used for assaying the CA-catalyzed CO2 hydration activity [49].
At least six measurements of the original 5–10% reaction were used to assess the initial velocity for each inhibitor. The uncatalyzed rates were identically determined and detracted from the total observed rates. Stock inhibitor solutions (10–100 mM) were prepared in distilled, deionized water, and dilutions up to 0.01 mM were performed with the buffer test. […] The inhibition constants, which represent the mean from at least three different determinations, were obtained by the non-linear least-squares methods using PRISM 6 and the Cheng–Prusoff equation, as reported earlier [50]. […] All salts/small molecules were of the highest purity available from Sigma-Aldrich (Milan, Italy).

Row | SMILES | Ki [1] | Ki [2] | Ki [3]
1 | NS(=O)(=O)c1ccc(O)cc1 [compound 15] | 0.23 µM | > 10 µM | 0.61 µM
2 | Nc1ccc(S(=O)(=O)Nc2nnc(S(N)(=O)=O)s2)cc1 [compound 20] | 0.23 µM | 0.91 µM | 0.61 µM
3 | Nc1ccc(S(N)(=O)=O)cc1 [compound 2] | 0.24 µM | 4.62 µM | –
4 | CC(=O)/N=c1/sc(S(N)(=O)=O)nn1C [MZA, Methazolamide, reference compound] | – | – | 1.72 µM
5 | Cc1onc(-c2ccccc2)c1-c1ccc(S(N)(=O)=O)cc1 [VLX, Valdecoxib, reference compound] | – | 0.77 µM | 0.63 µM
6 | Nc1cc(Cl)c(S(N)(=O)=O)cc1S(N)(=O)=O [compound 12] | – | > 10 µM | 2.74 µM
7 | CCN1CCCC1CNC(=O)c1cc(S(N)(=O)=O)ccc1OC (stereo not drawn) [SLP, Sulpiride, reference compound] | – | 4.85 µM | –
8 | NS(=O)(=O)c1cc2c(cc1Cl)NCNS2(=O)=O [HCT, Hydrochlorothiazide, reference compound] | – | 8.5 µM | 0.26 µM
9 | CCN[C@H]1CN(CCCOC)S(=O)(=O)c2sc(S(N)(=O)=O)cc21 [BRZ, Brinzolamide, reference compound] | > 10 µM | 0.7 µM | 0.55 µM
10 | NCc1ccc(S(N)(=O)=O)cc1 [compound 5] | – | > 10 µM | 2.18 µM
11 | NS(=O)(=O)c1cc(Cl)cc(Cl)c1O [compound 10] | 0.54 µM | > 10 µM | 2.01 µM
12 | NS(=O)(=O)c1cccc(S(N)(=O)=O)c1 [compound 3] | 0.15 µM | > 10 µM | 1.5 µM
13 | CC1(C)O[C@@H]2[C@@H](CO[C@@]3(COS(N)(=O)=O)OC(C)(C)O[C@@H]23)O1 [TPM, Topiramate, reference compound] | 1.46 µM | 3.83 µM | 0.48 µM
14 | NS(=O)(=O)c1nnc(NS(=O)(=O)c2ccccc2)s1 [BZA, Benzolamide, reference compound] | – | 7.15 µM | 0.12 µM
15 | Nc1nnc(S(N)(=O)=O)s1 [compound 13] | – | – | 1.09 µM
16 | Nc1ccc(S(N)(=O)=O)cc1Br [compound 9] | 0.34 µM | > 10 µM | –
17 | Nc1cccc(S(N)(=O)=O)c1 [compound 1] | – | – | 1.99 µM
18 | Nc1cc(C(F)(F)F)c(S(N)(=O)=O)cc1S(N)(=O)=O [compound 11] | – | 6.76 µM | –
19 | Nc1nccc(Nc2ccc(S(N)(=O)=O)cc2)n1 [compound 19] | > 10 µM | 7.79 µM | 0.59 µM
20 | Nc1ccc(S(N)(=O)=O)cc1Cl [compound 8] | 0.12 µM | > 10 µM | 1.68 µM

Row | SMILES | Ki [1] | Ki [2] | Ki [3]
21 | Nc1ccc(S(=O)(=O)Nc2ccc(S(N)(=O)=O)cc2)cc1 [compound 22] | 0.09 µM | 3.74 µM | 1.37 µM
22 | NS(=O)(=O)Cc1noc2ccccc12 [ZNS, Zonisamide, reference compound] | – | – | 2.42 µM
23 | O=C1NS(=O)(=O)c2ccccc21 [SAC, Saccharin, reference compound] | – | – | 1.03 µM
24 | NS(=O)(=O)c1cc(Cl)c(Cl)c(S(N)(=O)=O)c1 [DCP, Dichlorophenamide, reference compound] | 0.34 µM | 3.06 µM | –
25 | NS(=O)(=O)c1ccc(C(=O)O)cc1 [compound 18] | 0.06 µM | > 10 µM | –
26 | NS(=O)(=O)c1ccc(N2CCCCS2(=O)=O)cc1 [SLT, Sulthiame, reference compound] | – | 0.67 µM | 1.88 µM
27 | Nc1ccc(S(N)(=O)=O)cc1F [compound 7] | 0.11 µM | 4.59 µM | 2.48 µM
28 | NS(=O)(=O)c1ccc(CCO)cc1 [compound 17] | 0.06 µM | > 10 µM | –
29 | Cc1ccc(-c2cc(C(F)(F)F)nn2-c2ccc(S(N)(=O)=O)cc2)cc1 [CLX, Celecoxib, reference compound] | > 10 µM | 1.4 µM | 0.06 µM
30 | NC(N)=Nc1nc(CSCCC(N)=NS(N)(=O)=O)cs1 [FAM, Famotidine, reference compound] | – | – | 4.91 µM
31 | NCCc1ccc(S(N)(=O)=O)cc1 [compound 6] | – | > 10 µM | –
32 | NS(=O)(=O)c1ccc(CCNS(=O)(=O)c2ccc([N+](=O)[O-])cc2CO)cc1 [compound 21] | 0.11 µM | 7.4 µM | 0.27 µM
33 | Nc1ccc(S(=O)(=O)NCCc2ccc(S(N)(=O)=O)cc2)cc1 [compound 24] | – | – | 1.27 µM
34 | Nc1ccc(S(=O)(=O)NCc2ccc(S(N)(=O)=O)cc2)cc1 [compound 23] | > 10 µM | > 10 µM | 0.26 µM
35 | Cn1nc(S(N)(=O)=O)sc1=N [compound 14] | > 10 µM | > 10 µM | 0.58 µM
36 | NS(=O)(=O)c1ccc(CO)cc1 [compound 16] | 0.1 µM | 6.51 µM | 1.06 µM
37 | NS(=O)(=O)NCCNc1nonc1C(=NO)Nc1ccc(F)c(Br)c1 [EPA, Epacadostat, reference compound] | – | – | 0.63 µM
38 | NS(=O)(=O)c1ccc(S(=O)(=O)Nc2cccc3c(Cl)c[nH]c23)cc1 [IND, Indisulam E7070, reference compound] | – | < 1 µM | 4.82 µM
39 | Cc1ccc(S(N)(=O)=O)cc1 [compound 4] | – | – | 1.09 µM
